Marks after values point to notes of the source that are not given here.
What was measured:
[1] = molecular target: T1, human ERβ (Homo sapiens, UniProt Q92731); test: ERE-tk-Luc reporter activation in U2OS osteosarcoma cells transfected with ERβ; format: cell-based; settings: FIG. 1B
T1 construct: expressed in transfected cells; host or cells: U2OS osteosarcoma cells, transient transfection

[2] = tested on: U2OS-ERα cells; test: Affymetrix U95Av2 gene expression microarray in U2OS-ERα cells; format: cell-based, human; settings: for number of genes Activated, α / number of genes Repressed, α: 10 nM E2, 1 μM raloxifene or 1 μM tamoxifen
Procedure: (§1) To identify genes regulated by ERα and/or ERβ, the U2OS-ERα and U2OS-ERβ cell lines were treated with doxycycline for 18 h in the absence or presence of 10 nM E2. Total RNA was used to prepare cRNA for hybridization with the human U95Av2 Affymetrix microarrays, which contain 12,600 known genes. Six sets of comparative expression data of untreated vs. each treated group were used to determine the genes regulated in ERα or ERβ cells.
(§2) Microarray data obtained from human Affymetrix U95Av2 gene chips from untreated vs. ligand-treated samples were analyzed using the Affymetrix Microarray Suite Version 5.0. Candidate genes displaying a statistically significant (p<0.05) increase or decrease signal changes relative to controls in at least three experiments were further selected by a ±0.8 signal log ratio mean cut-off. […] Fold-changes in the U2OS-ERα and U2OS-ERβ samples (in parentheses) were calculated relative to the untreated samples.

[3] = tested on: U2OS-ERβ cells; test: Affymetrix U95Av2 gene expression microarray in U2OS-ERβ cells; format: cell-based, human
Procedure: as §1, §2

[4] = tested on: U2OS-ERα and U2OS-ERβ cell lines; test: Affymetrix U95Av2 microarray, genes regulated across U2OS-ERα and U2OS-ERβ cell lines; format: cell-based, human; settings: for total genes regulated in U2OSα and U2OSβ cell lines: p<0.05, 10 nM E2, 1 μM raloxifene or 1 μM tamoxifen; for total genes regulated in U2OSα and U2OSβ cell lines / number of genes Activated, α + β / number of genes Repressed, α + β: 18 h; for number of genes Activated, α + β / number of genes Repressed, α + β: in both cell lines
Procedure: as §1, §2

[5] = tested on: U2OS-ERα cells; settings: relative to untreated, 18 h
[6] = tested on: U2OS-ERβ cells; settings: relative to untreated, 18 h
[7] = tested on: U2OS-ERα and U2OS-ERβ cell lines; test: Affymetrix U95Av2 microarray, genes regulated across U2OS-ERα and U2OS-ERβ cell lines; format: cell-based, human; settings: for number of common genes with opposite expression patterns in ERα cells compared to ERβ cells (*): α + β, 1 μM SERM, 18 h
[8] = tested on: breast cancer graft; test: breast cancer graft (xenograft) growth, control vs DES vs MF101; format: in vivo
Description: (§3) In a similar experiment, the effect of MF101 on breast cancer cells was compared to that of diethylstilbestrol (DES). […] FIGS. 3G and 3H show the effect of control, DES and MF101 on a breast cancer graft mass (FIG. 3G) and a uterine horn mass (FIG. 3H).

[9] = tested on: uterine horn; test: uterine horn mass, control vs DES vs MF101; format: in vivo; settings: FIG. 3H
Description: as §3

[10] = only in U2OS-ERα cells, percent of all regulated genes

T1 sequence (Q92731 whole entry): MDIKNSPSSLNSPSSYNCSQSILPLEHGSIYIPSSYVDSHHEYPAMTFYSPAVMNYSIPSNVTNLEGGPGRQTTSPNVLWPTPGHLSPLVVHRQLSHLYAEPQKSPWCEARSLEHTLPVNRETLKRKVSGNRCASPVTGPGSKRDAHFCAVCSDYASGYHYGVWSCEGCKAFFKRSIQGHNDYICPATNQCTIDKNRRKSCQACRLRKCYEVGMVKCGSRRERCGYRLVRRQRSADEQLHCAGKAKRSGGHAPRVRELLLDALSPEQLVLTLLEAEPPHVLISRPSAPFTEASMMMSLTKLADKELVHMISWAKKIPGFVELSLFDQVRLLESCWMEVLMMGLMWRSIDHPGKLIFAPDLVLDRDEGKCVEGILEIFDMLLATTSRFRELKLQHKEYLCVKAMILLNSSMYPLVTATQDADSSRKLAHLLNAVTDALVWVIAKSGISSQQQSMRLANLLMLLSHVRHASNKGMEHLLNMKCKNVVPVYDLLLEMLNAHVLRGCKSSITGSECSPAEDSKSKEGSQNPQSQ

Compound	number of genes Activated, α ([2]; only in U2OS-ERα cells, 18 h)	number of genes Repressed, α ([2]; only in U2OS-ERα cells, 18 h)	number of genes Activated, β ([3]; only in U2OS-ERβ cells, 18 h)	number of genes Repressed, β ([3]; only in U2OS-ERβ cells, 18 h)	total genes regulated in U2OSα and U2OSβ cell lines [4]	number of common genes with opposite expression patterns in ERα cells compared to ERβ cells (*) [7]	number of genes Activated, α + β [4]	number of genes Repressed, α + β [4]	other results
O=C(c1ccc(OCCN2CCCCC2)cc1)c1c(-c2ccc(O)cc2)sc2cc(O)ccc12 [raloxifene]	10	10	52	101	Raloxifene: 190 genes regulated in U2OSα and U2OSβ cell lines	17*	–	–	blockade of the activation of ERE-tk-Luc by MF101 [1]: blocked; Mean signal log ratio ± S.E., NKG2C (α) ([2]; U2OS-ERα, 18 h): 2.40 ± 0.82; relative percentage of genes Activated, α [2, 10]: (5.3%); relative percentage of genes Repressed, α [2, 10]: (5.3%); Mean signal log ratio ± S.E., NKG2C (β) ([3]; U2OS-ERβ, 18 h): −5.20 ± 0.08; relative percentage of genes Activated, β ([3]; only in U2OS-ERβ cells): (27.4%); relative percentage of genes Repressed, β ([3]; only in U2OS-ERβ cells): (53.2%); relative percentage of common genes with opposite expression patterns (*) ([4]; α + β): (8.9%); Fold-change by real-time PCR, NKG2C (α) [5]: 7.54 fold; Fold-change by real-time PCR, NKG2C (β) [6]: 0.36 fold
C[C@]12CC[C@@H]3c4ccc(O)cc4CC[C@H]3[C@@H]1CC[C@@H]2O [estradiol]	33	32	87	38	Estradiol: 228 genes regulated in U2OSα and U2OSβ cell lines	–	34	4	genes regulated only in the U2OS-ERα cells ([2]; 10 nM E2): 65 genes; genes regulated only in the U2OS-ERβ cells ([3]; 10 nM E2): 125 genes; percentage of genes regulated by both ERα and ERβ ([4]; 10 nM E2, 38 of the 228): 17%; genes regulated by both ERα and ERβ ([4]; 10 nM E2, of the 228): 38 genes; total genes regulated in U2OSα and U2OSβ cell lines ([4]; listed as E2): 228 genes
CC/C(=C(\c1ccccc1)c1ccc(OCCN(C)C)cc1)c1ccccc1 [tamoxifen]	21	38	26	129	Tamoxifen: 236 genes regulated in U2OSα and U2OSβ cell lines	12*	1	9	percentage of genes regulated by tamoxifen that were also regulated by raloxifene [7]: 27%
CC/C(=C(/CC)c1ccc(O)cc1)c1ccc(O)cc1 [DES, diethylstilbestrol]	–	–	–	–	–	–	–	–	growth of xenograft (breast cancer graft mass) ([8]; FIG. 3G): substantial increase in xenograft mass; proliferation of breast cancer cells ([8]; FIGS. 3D-3F): proliferation-stimulating effect; growth of uterine horn mass [9]: substantial increase in uterine horn growth
